From patent US20160257697A1, “THIOPHENE-SUBSTITUTED TETRACYCLIC COMPOUNDS AND METHODS OFUSE THEREOF FOR THE TREATMENT OF VIRAL DISEASES” (priority 2013, published 2016)
Like-named read-outs stand apart in the source and are kept apart here.

Columns and labels:
Assay in all cases: microbe, parasite or virus in culture
Format in all cases: cell-based, Hepatitis C virus (HCV)
HCV replicon 1AQ30D = conditions: Replicon Assay B
HCV replicon 1B = conditions: Replicon Assay B
HCV replicon 1A = conditions: Replicon Assay A
Summary of the method: (§1)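 Three-day treatment of replicon cells (2000/well, 5% FBS, 0.5% DMSO), followed by TaqMan RT-PCR of replicon RNA with cyclophilin as internal control.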

HCV replicon 2B = conditions: Replicon Assay A
Summary of the method: as §1

HCV replicon 1AY93H = conditions: Replicon Assay A
Summary of the method: as §1

[1] = Hepatitis C virus, read-out: 1A Q30D IC50 (nM), replicon 1AQ30D
[2] = read-out: 1A Y93H IC50, replicon 1AY93H
[3] = Hepatitis C virus, read-out: 1A Q30D IC50, HCV replicon 1A Q30D
[4] = Hepatitis C virus, read-out: 2B IC50 (nM), replicon 2B
[5] = Hepatitis C virus, read-out: 1A Y93H IC50 (nM), replicon 1AY93H
[6] = read-out: 1A Q30D IC50, replicon 1AQ30D
[7] = read-out: 1A Q30D IC50, HCV replicon 1A Q30D
[8] = read-out: 2B IC50, HCV replicon 2B
[9] = read-out: 1A Y93H IC50, HCV replicon 1A Y93H

Row | Compound | IC50 (HCV replicon 1AQ30D; [1]) [nM] | IC50 (HCV replicon 1B; Hepatitis C virus, replicon 1B) [nM] | IC50 (HCV replicon 1A; replicon 1A) [nM] | IC50 (HCV replicon 2B; read-out: 2B IC50, replicon 2B) [nM] | IC50 (HCV replicon 1AY93H; [2]) [nM] | IC50 (HCV replicon 1A; Hepatitis C virus, replicon 1A) [nM] | other results
1 | COC(=O)N[C@@H](Cc1ccccc1)C(=O)N1CCC[C@H]1c1ncc(-c2ccc3c(c2)OC(c2ccc(-c4ccc(NC(=O)CCCC[C@@H]5SC[C@@H]6NC(=O)N[C@@H]65)cc4)s2)n2c-3cc3cc(-c4cnc([C@@H]5CCCN5C(=O)[C@H](Cc5ccccc5)NC(=O)OC)[nH]4)ccc32)[nH]1 (single isomer, unassigned) [Compound 384] | 16.7 | 0.0095 | 0.0156 | 3.75 | 0.923 |  | 
2 | CCc1ccc(C2Oc3cc(-c4cnc([C@@H]5CCCN5C(=O)[C@@H](NC(=O)OC)C(C)C)[nH]4)cc(C)c3-c3cc4cc(-c5cnc([C@@H]6CCCN6C(=O)[C@@H](NC(=O)OC)C6CCOCC6)[nH]5)ccc4n32)s1 (single isomer, unassigned) [Compound 560] |  |  |  |  |  |  | IC50 (HCV replicon 1AQ30D; [3]): 1.56 nM; IC50 (HCV replicon 1B; Hepatitis C virus, HCV replicon 1B): 0.00993 nM; IC50 (HCV replicon 1A; Hepatitis C virus, HCV replicon 1A): 0.0071 nM; IC50 (HCV replicon 2B; Hepatitis C virus, read-out: 2B IC50, HCV replicon 2B): 0.0516 nM; IC50 (HCV replicon 1AY93H; Hepatitis C virus, read-out: 1A Y93H IC50, HCV replicon 1A Y93H): 0.13 nM
3 | CCc1ccc(C2Oc3cc(-c4cnc([C@@H]5CCCN5C(=O)[C@@H](NC(=O)OC)C(C)C)[nH]4)cc(F)c3-c3cc4cc(-c5cnc([C@@H]6CCCN6C(=O)[C@@H](NC(=O)OC)C(C)C)[nH]5)ccc4n32)s1 (single isomer, unassigned) [Compound 3] | 50.6 | 0.0012 |  |  |  | 0.0036 | IC50 (HCV replicon 2B; [4]): 4.45 nM; IC50 (HCV replicon 1AY93H; [5]): 4.7 nM
4 | COC(=O)NC(C(=O)N1CCC[C@H]1c1ncc(-c2cc(F)c3c(c2)OC(c2ccc(C4CC4)s2)n2c-3cc3cc(-c4cnc([C@@H]5CCCN5C(=O)[C@@H](NC(=O)OC)C(C)C)[nH]4)ccc32)[nH]1)C1CCOC(C)(C)C1 (single isomer, unassigned) [Compound 216] |  |  | 0.0017 | 0.31 | 0.18 |  | IC50 (HCV replicon 1AQ30D; [6]): 1.03 nM; IC50 (HCV replicon 1B; replicon 1B): 0.0033 nM
5 | COC(=O)NC(C(=O)N1CCC[C@H]1c1ncc(-c2ccc3c(c2)cc2n3C(c3cc(C)c(C)s3)Oc3cc(-c4cnc([C@@H]5CCCN5C(=O)[C@@H](NC(=O)OC)C(C)C)[nH]4)cc(F)c3-2)[nH]1)C(C)(C)F (single isomer, unassigned) [Compound 39] | 0.61 | 0.001 | 0.002 |  | 0.12 |  | IC50 (HCV replicon 2B; [4]): 0.45 nM
6 | COC(=O)N[C@H](C(=O)N1CCC[C@H]1c1ncc(-c2cc(F)c3c(c2)OC(c2ccsc2)n2c-3cc3cc(-c4cnc([C@@H]5CCCN5C(=O)[C@@H](NC(=O)OC)C(C)C)[nH]4)ccc32)[nH]1)C(C)C (single isomer, unassigned) [Compound 317] | 2.58 | 0.0016 |  | 0.94 | 0.11 | 0.0012 | 
7 | COC(=O)NC(C(=O)N1CCC[C@H]1c1ncc(-c2cc(F)c3c(c2)OC(c2ccc(C4CC4)s2)n2c-3cc3cc(-c4cnc([C@@H]5CCCN5C(=O)[C@@H](NC(=O)OC)C(C)C)[nH]4)ccc32)[nH]1)C1C[C@@H](C)O[C@@H](C)C1 (single isomer, unassigned) [Compound 189] |  |  | 0.0013 | 0.48 | 0.26 |  | IC50 (HCV replicon 1AQ30D; [6]): 1.42 nM; IC50 (HCV replicon 1B; replicon 1B): 0.0018 nM
8 | COC(=O)NC(C(=O)N1CCC[C@H]1c1ncc(-c2cc(F)c3c(c2)OC(c2ccc(C4CC4)s2)n2c-3cc3cc(-c4cnc([C@@H]5CCCN5C(=O)[C@@H](NC(=O)OC)C5CCOCC5)[nH]4)ccc32)[nH]1)C(C)(C)F (stereo partly shown) [Compound 168] | 0.011 |  |  | 0.002 | 0.002 | 0.0013 | IC50 (HCV replicon 1B; replicon 1B): 0.0015 nM
9 | CCc1ccc(C2Oc3cc(-c4cnc([C@@H]5CCCN5C(=O)[C@@H](NC(=O)OC)C(C)C)[nH]4)cc(F)c3-c3cc4cc(-c5cnc([C@@H]6CCCN6C(=O)[C@H](NC(=O)OC)C6COCC(C)(C)C6)[nH]5)ccc4n32)s1 (stereo partly shown) [Compound 150] | 0.094 | 0.0019 |  |  |  | 0.0024 | IC50 (HCV replicon 2B; [4]): 0.007 nM; IC50 (HCV replicon 1AY93H; [5]): 0.004 nM
10 | CCc1ccc(C2Oc3cc(-c4cnc([C@@H]5CCCN5C(=O)C(NC(=O)OC)C5C[C@@H](C)O[C@@H](C)C5)[nH]4)cc(F)c3-c3cc4cc(-c5cnc([C@@H]6CCCN6C(=O)[C@@H](NC(=O)OC)C(C)C)[nH]5)ccc4n32)s1 (single isomer, unassigned) [Compound 156] | 0.019 | 0.0018 | 0.002 | 0.005 | 0.005 |  | 
11 | COC(=O)N[C@H](C(=O)N1CCC[C@H]1c1ncc(-c2cc(F)c3c(c2)OC(c2ccc(C4CC4)s2)n2c-3cc3cc(-c4cnc([C@@H]5CCCN5C(=O)[C@@H](NC(=O)OC)C(C)C)[nH]4)ccc32)[nH]1)C(C)C (single isomer, unassigned) [Compound 6] |  |  | 0.0019 |  |  |  | IC50 (HCV replicon 1AQ30D; replicon 1AQ30D, read-out: 1A Q30D IC50): 0.32 nM; IC50 (HCV replicon 1B; replicon 1B): 0.0015 nM; IC50 (HCV replicon 2B; replicon 2B, read-out: 2B IC50): 0.028 nM; IC50 (HCV replicon 1AY93H; replicon 1AY93H, read-out: 1A Y93H IC50): 0.011 nM
12 | COC(=O)NC(C(=O)N1[C@@H]2C[C@@H]2C[C@H]1c1ncc(-c2ccc3c(c2)cc2n3C(c3ccc(CC4CC4)s3)Oc3cc(-c4cnc([C@@H]5CCCN5C(=O)[C@@H](NC(=O)OC)C(C)C)[nH]4)cc(F)c3-2)[nH]1)C1CCOC(C)(C)C1 (single isomer, unassigned) [Compound 419] |  |  |  |  |  |  | IC50 (HCV replicon 1AQ30D; [7]): 0.0916 nM; IC50 (HCV replicon 1B; HCV replicon 1B): 0.0083 nM; IC50 (HCV replicon 1A; HCV replicon 1A): 0.0072 nM; IC50 (HCV replicon 2B; [8]): 0.0132 nM; IC50 (HCV replicon 1AY93H; [9]): 0.0072 nM
13 | COC(=O)N[C@H](C(=O)N1CCC[C@H]1c1ncc(-c2cc(F)c3c(c2)OC(c2ccc(C4(O)CC4)s2)n2c-3cc3cc(-c4cnc([C@@H]5CCCN5C(=O)[C@@H](NC(=O)OC)C(C)C)[nH]4)ccc32)[nH]1)C(C)C (single isomer, unassigned) [Compound 60] | 0.35 | 0.0013 |  |  |  | 0.0015 | IC50 (HCV replicon 2B; [4]): 0.023 nM; IC50 (HCV replicon 1AY93H; [5]): 0.014 nM
14 | COC(=O)N[C@H](C(=O)N1CCC[C@H]1c1ncc(-c2cc(F)c3c(c2)OC(c2cc4c(s2)CCC(C)(C)O4)n2c-3cc3cc(-c4cnc([C@@H]5CCCN5C(=O)[C@@H](NC(=O)OC)C(C)C)[nH]4)ccc32)[nH]1)C(C)C (single isomer, unassigned) [Compound 397] | 0.0765 | 0.003 |  | 0.0164 | 0.004 | 0.003 | 
15 | COC(=O)NC(C(=O)N1CCC[C@H]1c1ncc(-c2ccc3c(c2)cc2n3C(c3ccc(C4CC4)s3)Oc3cc(-c4cnc([C@@H]5CCCN5C(=O)[C@@H](NC(=O)OC)C(C)C)[nH]4)cc(F)c3-2)[nH]1)C1CN(C(=O)OC)C1 (single isomer, unassigned) [Compound 226] | 0.13 | 0.0036 |  | 0.025 | 0.009 | 0.0026 | 
16 | COC(=O)N[C@H](C(=O)N1C2CC2C[C@H]1c1ncc(-c2cc(F)c3c(c2)OC(c2ccc(C4CC4)s2)n2c-3cc3cc(-c4cnc([C@@H]5CCCN5C(=O)[C@@H](NC(=O)OC)C5C[C@@H](C)O[C@@H](C)C5)[nH]4)ccc32)[nH]1)C(C)C (single isomer, unassigned) [Compound 554] |  |  |  |  |  |  | IC50 (HCV replicon 1AQ30D; [7]): 1.67 nM; IC50 (HCV replicon 1B; HCV replicon 1B): 0.0226 nM; IC50 (HCV replicon 1A; HCV replicon 1A): 0.0268 nM; IC50 (HCV replicon 2B; [8]): 0.203 nM; IC50 (HCV replicon 1AY93H; [9]): 0.237 nM
17 | COC(=O)N[C@H](C(=O)N1CCC[C@H]1c1ncc(-c2cc(F)c3c(c2)OC(c2ccc(CC4CC4)s2)n2c-3cc3cc(-c4cnc([C@@H]5CCCN5C(=O)[C@@H](NC(=O)OC)C5CCOCC5)[nH]4)ccc32)[nH]1)C(C)C (single isomer, unassigned) [Compound 356] |  | 0.0025 |  | 0.0175 | 0.0214 | 0.0025 | IC50 (HCV replicon 1AQ30D; [6]): 0.152 nM
18 | COC(=O)NC(C(=O)N1CCC[C@H]1c1ncc(-c2ccc3c(c2)cc2n3C(c3ccc(C(C)C)s3)Oc3cc(-c4cnc([C@@H]5CCCN5C(=O)[C@@H](NC(=O)OC)C(C)C)[nH]4)cc(C)c3-2)[nH]1)C1C[C@@H](C)O[C@@H](C)C1 (single isomer, unassigned) [Compound 366] | 0.0759 | 0.0015 | 0.0019 | 0.0053 | 0.0123 |  | 
19 | COC(=O)NC(C(=O)N1CCCC1c1ncc(-c2cc(F)c3c(c2)OC(c2ccc(C4CC4)s2)n2c-3cc3cc(-c4cnc(C5CC6CC6N5C(=O)C(NC(=O)OC)C5CCOCC5)[nH]4)ccc32)[nH]1)C(C)C (mixture of isomers) [Compound 651] |  |  |  |  |  |  | IC50 (HCV replicon 1AQ30D; HCV replicon 1A Q30D, read-out: 1A Q30D IC50): 0.0178 nM; IC50 (HCV replicon 1B; HCV replicon 1B): 0.0018 nM; IC50 (HCV replicon 1A; HCV replicon 1A): 0.0013 nM; IC50 (HCV replicon 2B; HCV replicon 2B, read-out: 2B IC50): 0.0081 nM; IC50 (HCV replicon 1AY93H; HCV replicon 1A Y93H, read-out: 1A Y93H IC50): 0.0023 nM
20 | COC(=O)N[C@H](C(=O)N1CCC[C@H]1c1ncc(-c2cc(F)c3c(c2)OC(c2cc4c(s2)CCC4)n2c-3cc3cc(-c4cnc([C@@H]5C[C@H]6C[C@H]6N5C(=O)[C@@H](NC(=O)OC)C5CCOCC5)[nH]4)ccc32)[nH]1)C(C)C (single isomer, unassigned) [Compound 541] |  |  |  |  |  |  | IC50 (HCV replicon 1AQ30D; [3]): 0.303 nM; IC50 (HCV replicon 1B; HCV replicon 1B): 0.0237 nM; IC50 (HCV replicon 1A; HCV replicon 1A): 0.0148 nM; IC50 (HCV replicon 2B; [8]): 0.096 nM; IC50 (HCV replicon 1AY93H; [9]): 2.19 nM
